Source: US5773569A (Affymax Technologies N.V., priority 1995, dated 1998)
Read-outs that look alike come from different tables or passages of the source. Residues, ends and D or L forms follow the SMILES beside them.

Key:
[1] = biological target: T1, PIG-tailed EPO-R immobilized on mAb179 (Homo sapiens, UniProt P19235); test: PIG-tailed EPO-R radioligand competition binding assay; conditions: streptavidin 4:1 experiment; free peptide concentrations
T1 construct: comprised the extracellular domain of the EPO-receptor; thrombin cleavage site (internal); made in house
T1 sequence (P19235 25-250 limits assumed): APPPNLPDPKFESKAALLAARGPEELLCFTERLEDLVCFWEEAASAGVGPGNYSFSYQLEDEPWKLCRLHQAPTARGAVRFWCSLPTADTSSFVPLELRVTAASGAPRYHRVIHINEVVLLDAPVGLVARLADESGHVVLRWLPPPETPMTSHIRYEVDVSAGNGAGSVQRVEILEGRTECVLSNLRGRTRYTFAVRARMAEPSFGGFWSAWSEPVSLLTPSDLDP
Procedure: Affinity was determined using a radioligand competition binding assay against PIG-tailed EPOR immobilized on mAB179.
The recombinant receptor protein was immobilized using the following methodology. Microtiter plates were coated within an anti-receptor antibody and the wells which were to contain the immobilized receptor were treated with bovine serum albumin (BSA) to block non-specific binding. The PIG-tailed receptor having a thrombin cleavage site was added to the coated wells of the microtiter plate, which were then washed to remove unbound receptor.
IC50 s were calculated for several of the peptides falling within the general motifs described above.
This peptide was incubated with streptavidin in PBS at a 4:1 molar ratio at room temperature for one hour.
The affinity of the dimer was tested against the PIG-tailed EPOR immobilized on mAbl179 in strip wells.

[2] = biological target: T2, murine receptor (FDC-P1/ER cells) (Mus musculus, UniProt P14753); test: cell-based; conditions: IA = inactive
T2 sequence (P14753 25-507): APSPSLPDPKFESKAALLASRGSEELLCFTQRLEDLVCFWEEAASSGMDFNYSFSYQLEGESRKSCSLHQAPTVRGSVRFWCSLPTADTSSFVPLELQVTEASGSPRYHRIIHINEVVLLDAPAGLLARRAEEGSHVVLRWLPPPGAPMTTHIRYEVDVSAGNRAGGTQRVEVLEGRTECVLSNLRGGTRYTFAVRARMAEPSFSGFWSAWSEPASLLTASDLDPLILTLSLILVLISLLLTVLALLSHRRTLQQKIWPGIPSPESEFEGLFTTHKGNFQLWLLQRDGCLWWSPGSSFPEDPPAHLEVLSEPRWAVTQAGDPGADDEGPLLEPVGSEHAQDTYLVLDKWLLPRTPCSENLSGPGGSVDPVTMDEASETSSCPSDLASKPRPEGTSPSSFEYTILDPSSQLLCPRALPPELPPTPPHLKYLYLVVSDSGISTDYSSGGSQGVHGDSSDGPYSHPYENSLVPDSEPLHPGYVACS
Procedure: Sample Preparation: Peptides were resuspended in DMSO as a 1×10^-2 M stock solution and serially diluted in 10-fold increments to generate the following 100×solutions:
Two μl of each stock dilution was added to a cell well as described below in a total volume of 200 μl to generate final concentrations as follows:
Cells are harvested and resuspended in fresh medium without growth factor (erytiropoietin) for 24 hr. Cells are counted and resuspended at a concentration of 800,000 cells/ml. Approximately forty thousand cells (50μ) are added to each well of a 96 well microtiter plate. Peptide is added to each well in triplicate. A standard dose response determination is run with each series of peptides. After a forty-two hr incubation (≈2 doubling), each well is pulsed with 1 μCi/well Thymidine. Cells are incubated an additional six hr at which time cells are harvested and counted to assess thymidine incorporation as an indicator of cell proliferation.

[3] = biological target: T3, truncated human erythropoietin receptor cell line (Homo sapiens, UniProt P19235); test: cell-based
T3 sequence (P19235 25-468 limits assumed): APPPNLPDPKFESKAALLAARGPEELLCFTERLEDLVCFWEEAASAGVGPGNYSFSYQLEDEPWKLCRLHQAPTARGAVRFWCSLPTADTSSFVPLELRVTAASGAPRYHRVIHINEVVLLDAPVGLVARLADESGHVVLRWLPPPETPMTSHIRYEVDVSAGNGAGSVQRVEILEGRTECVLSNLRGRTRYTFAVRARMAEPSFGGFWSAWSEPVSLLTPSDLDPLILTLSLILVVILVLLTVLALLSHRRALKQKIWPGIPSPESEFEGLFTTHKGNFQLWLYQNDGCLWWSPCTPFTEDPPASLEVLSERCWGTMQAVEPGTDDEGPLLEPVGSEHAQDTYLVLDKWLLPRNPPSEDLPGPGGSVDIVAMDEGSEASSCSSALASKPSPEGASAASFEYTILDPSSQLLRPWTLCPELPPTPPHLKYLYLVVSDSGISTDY

[4] = biological target: T4, FDCP-1/hEPO-R cells (human EPO-R) (Homo sapiens, UniProt P19235); test: cell-based
T4 sequence (P19235 25-508): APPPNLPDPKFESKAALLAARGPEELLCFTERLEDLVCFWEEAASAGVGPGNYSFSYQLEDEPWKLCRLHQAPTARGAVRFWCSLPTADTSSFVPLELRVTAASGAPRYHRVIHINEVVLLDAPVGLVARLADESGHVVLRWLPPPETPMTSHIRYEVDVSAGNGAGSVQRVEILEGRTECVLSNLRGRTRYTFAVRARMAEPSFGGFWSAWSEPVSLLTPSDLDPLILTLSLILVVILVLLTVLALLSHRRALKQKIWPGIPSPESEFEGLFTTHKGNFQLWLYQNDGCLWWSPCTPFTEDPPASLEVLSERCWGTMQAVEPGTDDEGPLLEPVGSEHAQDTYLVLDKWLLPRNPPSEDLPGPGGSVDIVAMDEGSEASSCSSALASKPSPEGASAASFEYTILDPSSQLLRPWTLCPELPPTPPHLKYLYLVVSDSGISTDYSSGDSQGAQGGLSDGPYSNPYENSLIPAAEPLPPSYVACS
Procedure: One assay utilized FDCP-1, a growth factor depenent murne multi-potential primitive hematopoietic progenitor cell line (see, e.g., Dexter et al. (1980) J. Exp. Med. 152:1036-1047), as the parental cell line. This cell line can proliferate, but not differentiate, when supplemented with WEHI3-conditioned media (a medium that contains IL-3, ATCC number T1B68).
In brief, the cells are grown to half stationary density in the presence of the necessary growth factors. The cells are then washed in PBS and starved for 16-24 hours in whole media without the growth factors. After determining the viability of the cells, stock solutions (in whole media without the growth factors) are made to give about 10^5 cells per 50 microliters. […] Cells (50 microliters) are added to each well and the cells are incubated 24-48 hours, at which point the negative controls should die or be quiescent. Cell proliferation is then measured by techniques known in the art, such as an MTT assay which correlates with ^3 H-thymidine incorporation as an indication of cell proliferation (see, Mosmann (1983) J. Immnunol. Methods 65:55).
In addition, this peptide was preincubated with streptavidin in serum-free HEPES-buffered RPMI at a 4:1 molar ratio, as above. The complex was tested for stimulation of cell proliferation in an FDCP-1/hEPO-R bioassay alongside. free […] […]

[5] = biological target: T5, extracellular domain of the human erythropoietin receptor (EPO binding protein, EBP) (Homo sapiens, UniProt P19235); test: Immobilized EBP based [125I]EPO competition binding assay; conditions: IC50 relative to RWJ61233 (IC50 5 μM); cyclic peptides, COOH terminal amides
T5 construct: made in house
T5 sequence (P19235 25-250 limits assumed): T1 sequence (P19235 25-250 limits assumed)
Procedure: The iodoacetyl activation chemistry of Sufolink beads (Pierce Chemical Co, Rockford, Ill.) is specific for free thiols and assures that the linkage is not easily reversible. EBP-Sulfolink beads were made as follows: SulfoLink gel suspension (10 ml) was mixed with coupling buffer (40 ml: 50 mM Tris, pH 8.3, 5 mM EDTA) and the gel was allowed to settle. The supernatant was removed and the EBP (0.3-1 mg/ml in coupling buffer) to be bound was added directly to the washed beads. The mixture was rocked gently for 30 minutes at room temperature, and the beads were allowed to settle for 1 hour at room temperature. […] The amount of EBP which was covalently bound to the beads was determined by comparing the OD280 of the original EBP solution to the total OD280 recovered in the reaction supernatant and the two 20 ml washes.
Binding assays were initiated by the addition of EBP beads (50 μl) to individual reaction tubes. […] The tubes were incubated for five hours (a time period experimentally determined as adequate for the establishment of equilibrium) at room temperature with gentle rocking. […]
Competitive binding analysis assays of candidate peptides were performed as outlined below. […] The columns containing the washed beads were placed in 12×75 mm glass tubes and bound radioactivity levels were determined using a gamma counter.

[6] = EPO-ED50 (μM), Tables 17-19, amount for half maximal level of EPO dependent proliferation

For CC(C)C[C@@H]1NC(=O)[C@@H]2CCCN2C(=O)CNC(=O)[C@H](Cc2ccccc2)NC(=O)[C@H](Cc2c[nH]cn2)NC(=O)[C@@H](NC(=O)[C@H](CO)NC(=O)[C@H](Cc2ccc(O)cc2)NC(=O)[C@@H](NC(=O)CNC(=O)CN)[C@@H](C)O)CSSC[C@@H](C(=O)N[C@@H](CCCCN)C(=O)N2CCC[C@H]2C(=O)N[C@@H](CCC(N)=O)C(=O)NCC(=O)NCC(=O)N[C@@H](CO)C(=O)N[C@@H](CO)C(=O)N[C@@H](CCCCNC(=O)CCCCCNC(=O)CCCC[C@@H]2SC[C@@H]3NC(=O)N[C@@H]32)C(N)=O)NC(=O)[C@H](C(C)C)NC(=O)[C@H](Cc2c[nH]c3ccccc23)NC(=O)[C@H]([C@@H](C)O)NC1=O (HELM PEPTIDE1{G.G.T.Y.S.C.H.F.G.P.L.T.W.V.C.K.P.Q.G.G.S.S.K.[am]}|PEPTIDE2{[O=C1N[C@H]2[C@H](CS[C@H]2CCCCC(=O)[*:2])N1].[O=C(CCCCCN[*:1])[*:2]]}$PEPTIDE1,PEPTIDE2,23:R3-2:R2|PEPTIDE1,PEPTIDE1,6:R3-15:R3$$$V2.0; N-terminus and C-terminus assumed), the IC50 [1] was 350 nM.
Compound CC(C)C[C@@H]1NC(=O)[C@@H]2CCCN2C(=O)CNC(=O)[C@H](Cc2ccccc2)NC(=O)[C@H](Cc2c[nH]cn2)NC(=O)[C@@H](NC(=O)[C@H](CO)NC(=O)[C@H](Cc2ccc(O)cc2)NC(=O)[C@@H](NC(=O)CNC(=O)CN)[C@@H](C)O)CSSC[C@@H](C(=O)N[C@@H](CCCCN)C(=O)N2CCC[C@H]2C(=O)N[C@@H](CCC(N)=O)C(=O)NCC(=O)NCC(N)=O)NC(=O)[C@H](C(C)C)NC(=O)[C@H](Cc2c[nH]c3ccccc23)NC(=O)[C@H]([C@@H](C)O)NC1=O [RWJ 61233] (HELM PEPTIDE1{G.G.T.Y.S.C.H.F.G.P.L.T.W.V.C.K.P.Q.G.G.[am]}$PEPTIDE1,PEPTIDE1,6:R3-15:R3$$$V2.0) has an EC50 [2, 6] of 0.1 µM, an EC50 [3] of 100 nM and an EC50 [4] of 400 nM. It also gave an EC50 ([4]; EPO-ED50, FIG. 10) of ~1000 nM.
Compound CC(C)C[C@@H]1NC(=O)[C@@H]2CCCN2C(=O)CNC(=O)[C@H](Cc2ccccc2)NC(=O)[C@H](Cc2c[nH]cn2)NC(=O)[C@@H](NC(=O)[C@H](CO)NC(=O)[C@H](Cc2ccc(O)cc2)NC(=O)[C@@H](NC(=O)CNC(=O)CN)[C@@H](C)O)CSSC[C@@H](C(=O)N[C@@H](CCCCN)C(=O)N2CCC[C@H]2C(=O)N[C@@H](CCC(N)=O)C(=O)NCC(=O)NCC(N)=O)NC(=O)[C@H](C(C)C)NC(=O)[C@H](Cc2ccccc2)NC(=O)[C@H]([C@@H](C)O)NC1=O [RWJ 62145] (HELM PEPTIDE1{G.G.T.Y.S.C.H.F.G.P.L.T.F.V.C.K.P.Q.G.G.[am]}$PEPTIDE1,PEPTIDE1,6:R3-15:R3$$$V2.0) has an EC50 [2, 6] of 0.25 µM and an EC50 [3] of 500 nM.
CC(=O)NCC(=O)NCC(=O)N[C@H](C(=O)N[C@@H](Cc1ccc(O)cc1)C(=O)N[C@@H](CO)C(=O)N[C@H]1CSSC[C@@H](C(=O)N[C@@H](CCCCN)C(=O)N2CCC[C@H]2C(=O)N[C@@H](CCC(N)=O)C(=O)NCC(=O)NCC(N)=O)NC(=O)[C@H](C(C)C)NC(=O)[C@H](Cc2c[nH]c3ccccc23)NC(=O)[C@H]([C@@H](C)O)NC(=O)[C@H](CC(C)C)NC(=O)[C@@H]2CCCN2C(=O)CNC(=O)[C@H](Cc2ccccc2)NC(=O)[C@H](Cc2c[nH]cn2)NC1=O)[C@@H](C)O [RWJ 62146] (HELM PEPTIDE1{[ac].G.G.T.Y.S.C.H.F.G.P.L.T.W.V.C.K.P.Q.G.G.[am]}$PEPTIDE1,PEPTIDE1,7:R3-16:R3$$$V2.0) was tested, and the EC50 ([2]; EPO-ED50 (μM)* murine receptor, Tables 20-21) was 0.03 µM, the “Relative Binding” value [5] was 4 and the EC50 [3] was 60 nM.
For RWJ 61721 (GGTYSEHFGPLTWVKKPQGG), the “Relative Binding” value [5] was > 100.
